Measured values: US6436997B1, “Endogenous nitric oxide synthesis under conditions of low oxygen tension” (NitroMed, Inc., priority 1998, dated 2002)

Assays:
rat aortic segments = test: Relaxation of norepinephrine-contracted rat aortic segments from non-diabetic and diabetic rats; type: cell-based; conditions: for effect on acetylcholine induced relaxation of aorta segments / effect on acetylcholine induced relaxation of aortic rings: 10 μM test drug, 10 nM-10 μM ACh, normoxia; for effect on acetylcholine induced relaxation of aorta segments: diabetic rats, FIG. 10B; for effect on acetylcholine induced relaxation of aortic rings: non-diabetic rats, FIG. 10A
Description: Diabetes was induced in rats by the administration of a single injection of steptozotocin (60 mg/kg; i.p). Diabetic rats remained untreated for a total of 8 weeks. […] Rats were anesthetized with diethyl ether and exsanguinated. The thoracic aorta was then removed and the tissue dissected free from the surrounding periadventitial fat and connective tissue, taking precautions to avoid touching the luminal surface. The tissue was cut into 8 segments, each approximately 3-4 mm in length. Rat aortic segments were maintained at 4-6° C. Krebs-bicarbonate buffer (composition per millimolar: NaCl, 120; KCl, 5.6; MgCl2, 1.2; NaH2PO4, 1.2; dextrose, 10; NaHCO3, 25; CaCl2 2.5; pH 7.4) until used. Aortic segments were typically used between 2 and 16 hrs from extraction. […] Each aortic tissue strip was submitted to 1.5 g of resting tension. […] The aortic segments were then contracted with submaximal concentration of norepinephrine and the contraction as allowed to reach a steady state level. Once a steady state of muscle tension was reached, the tissue was exposed to various concentrations of test compounds and the relaxation responses were recorded. Relaxation responses were expressed as a percentage of total relaxation induced by a supramaximal addition of papaverine (total loss of tone) at the end of the experiment. In FIGS. 7-12, the data are expressed as mean±standard mean error.

[1] = system: rabbit corpus cavernosum tissue; test: Relaxation of phenylephrine-contracted corpus cavernosum tissue strips in organ chambers; type: cell-based; conditions: for effect on N-hydroxy-L-arginine induced relaxation / effect on hydroxylamine induced relaxation: 20% O2; for effect on hydroxylamine induced relaxation: increasing hydroxylamine
Description: (§1) Rabbits were euthanized with an overdose of intravenous pentobarbital (60 mg/kg) and immediately exsanguinated. The entire penis was then removed and the corpus cavernosum tissue dissected free from the surrounding tunica albuginea and cut into strgips (3×3×7 mm). Corpus cavernosum tissues were maintained at 4-6° C. in M-400 solution (composition per 100 ml: mannitol, 4.19 g; KH2PO4, 0.205 g; K2HPO4.3H2O, 0.97 g; KCl, 0.112 g; NaHCO3, 0.084 g) until used. Corpus cavernosum tissues were typically used between 2 and 16 hrs from extraction.
Corpus cavernosum tissue was prepared as described in Example 1. For experimentation to measure relaxation of the tissue under various conditions, the corpus cavernosum tissues were then suspended in 10 ml organ chambers and bathed in a physiological salt solution, maintained at 37° C. and aerated with 5% CO2/95% air, pH 7.4. Each corpus cavernosum tissue strip was incrementally stretched to optimal isometric tension as determined by the maximal contractile response to 1 μM phenylephrine. After several exchanges of fresh physiological solution, the media was bubbled with gas mixtures containing 5% CO2, the indicated amount of oxygen (between 0% and 20%) and the remaining percentage was N2, for thirty minutes. Corpus cavernosum tissues were then contracted with a submaximal concentration of phenylephrine, and the contraction was allowed to reach a steady state level. Once a steady state of muscle tension was reached, the tissue was exposed to various concentrations of test compounds, and the relaxation responses were recorded. Relaxation responses were expressed as a percentage of total relaxation induced by a supramaximal addition of papaverine (total loss of tone) at the end of the experiment. The data in FIGS. 3-6 are expressed as mean±standard mean error

[2] = system: rabbit corpus cavernosum tissue; test: cGMP production (basal and acetylcholine stimulated) by corpus cavernosum tissue strips, ELISA; type: cell-based; conditions: for cGMP concentration in acetylcholine stimulated tissue compared to basal values (ACh alone): 300 μM test drug + 30 μM ACh, under normoxia (20% O2) and hypoxia (0% O2), FIGS. 2A/2B; for basal cGMP production: normoxic (20% O2), vs vehicle control, FIG. 1
Description: as §1
Measurement of cyclic GMP in corpus cavernosal tissues was carried out as follows. Corpus cavernosal tissue strips were immersed in a 10 ml organ chamber containing physiological salt solution, maintained at 37° C. and aerated with 5% CO2/95% air, pH 7.4. Each strip was incrementally stretched to optimal isometric tension, as determined by maximal contractile responses to 1 μM phenylephrine ((R)-3-hydroxy-α-[(methylamino)methyl]-benzenemethanol hydrochloride). The physiological salt solution was then replaced with one bubbled with either 20% oxygen or 0% oxygen and the tissues were then given 0.5 μM phenylephrine, 30 μM Zaprinast and 100 μM IBMX (3-isobutyl-1-methylxanthine, […]) and incubated for 15 minutes; after which time each tissue was incubated with the test drug (or control drug) at various concentrations or with vehicle (the buffer in which the drugs are delivered). Tissues were incubated for another 5 minutes then immediately frozen in liquid nitrogen and stored at −80° C. until extraction for cyclic nucleotide assay. Tissues were extracted by homogenization in 6% trichloroacetic acid followed by ether (H2O-saturated) extraction and lyophilization. cGMP levels were determined by ELISA using a kit from Cayman Chemical Co. (Ann Arbor, Mich.).
Protein concentration in the corpus cavernosum tissue was determined using the Bio-Rad Protein Assay Kit microtiter plate assay procedure (Bio-Rad, Hercules, Calif.) with bovine serum albumin as the standard.

[3] = system: left hindlimb of autoperfused non-diabetic or diabetic rats; test: Vasoactive response (hindlimb perfusion pressure) of anesthetized autoperfused rats; type: in vivo, rat; conditions: bolus infusion 0.1-10 mg/kg, pressure elevated by norepinephrine 2 μg/min/kg, FIGS. 12A/12B
Description: The left hindlimb of the anesthetized rats were perfused through the femoral artery at a constant rate of 3.3 ml/min/kg with blood from the carotid artery by means of a peristaltic pump. The vasoactive response induced by the bolus infusion of increasing concentrations of L-arginine or N-hydroxy-L-arginine into the left hindlimb of autoperfused non-diabetic or diabetic rats was determined by measuring the change in the perfusion pressure, which was previously elevated by a norepinephrine constant infusion (2 μg/min/kg).

[4] = estimated; cited from earlier work
[5] = 0.1 mM L-NNA or 0.02 mM ODQ, increasing N-hydroxy-L-arginine, FIG. 4A
[6] = 0.1 mM L-NNA or 0.02 mM ODQ, FIG. 4B

COC(=O)[C@@H](N)CCCNC(=N)N[N+](=O)[O-] [L-NAME, N^G-nitro-L-arginine methyl ester]
effect on N-hydroxy-L-arginine induced relaxation of aorta segments (rat aortic segments; 10 μM inhibitor, normoxic, non-diabetic and diabetic rats, FIGS. 9A/9B): significantly decreased the measured relaxation

N=C(NCCC[C@H](N)C(=O)O)N[N+](=O)[O-] [L-NNA, N^G-nitro-L-arginine]
effect on N-hydroxy-L-arginine induced relaxation ([1]; 0.1 mM L-NNA added together with 0.1 mM miconazole, FIG. 3): does decrease the effectiveness of N-hydroxy-L-arginine to relax the tissue | effect on N-hydroxy-L-arginine induced relaxation [1, 5]: significantly decreased the measured relaxation | effect on hydroxylamine induced relaxation [1, 6]: had no effect

N=C(N)NCCC[C@H](N)C(=O)O [L-arginine]
cGMP concentration in acetylcholine stimulated tissue compared to basal values (ACh alone) [2]: not effective to statistically increase the concentration of cGMP | basal cGMP production ([2]; 300 μM test drug): stimulated cGMP production approximately equally | tissue relaxation at 1 mM ([1]; oxygen concentrations of 0%, 1%, 2% and 5% (data not shown)): no measurable effect on tissue relaxation | effect on acetylcholine induced relaxation of aorta segments (rat aortic segments): resulted in a decreased relaxation | effect on acetylcholine induced relaxation of aortic rings (rat aortic segments): do not effect the relaxation of aortic rings | change in hindlimb perfusion pressure, non-diabetic versus diabetic rats [3]: the pressure change was greater for the non-diabetic rats compared to diabetic rats

NC(=NCCC[C@H](N)C(=O)O)NO [N-hydroxy-L-arginine, N^G-hydroxy-L-arginine]
basal cGMP production ([2]; 30 μM test drug): stimulated cGMP production approximately equally | cGMP concentration in acetylcholine stimulated tissue compared to basal values (ACh alone) [2]: statistically significant increase in the concentration of cGMP | basal cGMP production ([2]; 300 μM test drug): effective to stimulate a higher concentration of cGMP production | tissue relaxation at 1 mM ([1]; all oxygen concentrations (0%, 1%, 2%, 5%, 20%), FIG. 6): significant relaxation of the tissue | induced relaxation, diabetic versus non-diabetic aortic segments (rat aortic segments; 1 μM, 95% O2, FIG. 8): more effective in inducing the relaxation of aortic segments obtained from diabetic rats | effect on acetylcholine induced relaxation of aorta segments (rat aortic segments): increased the relaxation | effect on acetylcholine induced relaxation of aortic rings (rat aortic segments): do not effect the relaxation of aortic rings | induced relaxation of aortic segments compared with L-arginine (rat aortic segments; 95% O2, 100 nM-100 μM, non-diabetic and diabetic rats, FIGS. 7A/7B): more effective in inducing relaxation in both non-diabetic and diabetic rats | change in hindlimb perfusion pressure, non-diabetic versus diabetic rats [3]: no difference in the perfusion pressure

O=c1onc2cnc3ccccc3n12 [ODQ, 1H-[1,2,4]oxadiazolo[4,3,a]quinoxalin-1-one]
effect on N-hydroxy-L-arginine induced relaxation [1, 5]: significantly decreased the measured relaxation | effect on hydroxylamine induced relaxation [1, 6]: significantly decreased the relaxation

NO [hydroxylamine]
relaxation of corpus cavernosum tissue by the substance itself ([1]; 20% O2, 1 nM to 1000 μM, FIG. 4B): induces the relaxation of the tissue

Clc1ccc(COC(Cn2ccnc2)c2ccc(Cl)cc2Cl)c(Cl)c1 (stereo not drawn) [miconazole]
effect on N-hydroxy-L-arginine induced relaxation ([1]; 0.1 mM miconazole, increasing N-hydroxy-L-arginine 1-1000 μM, FIG. 3): does not significantly effect the relaxation of the tissues

[N]=O [nitric oxide]
half-life in biological tissues [4]: less than one second
